Our source for the inhibition values is paper PMC7736581, “Activation of the IRE1 RNase through remodeling of the kinase front pocket by ATP-competitive ligands” (Nature Communications, 2020).

Holding throughout (experiment): biochemical
Common to all, as to design: Invitrogen kinase panel: Z'Lyte activity (ATP at Km) or LanthaScreen competitive ATP-site binding, percent inhibition
On the technique in general: Time-resolved FRET reads energy transfer from a long-lived donor to a nearby acceptor.

One assay concerns the target ROCK1 (Homo sapiens, UniProt Q13464).
Another assay deals with T1, Yes (Homo sapiens, UniProt P07947).
T1 construct: gene YES1
T1 sequence (P07947 whole entry): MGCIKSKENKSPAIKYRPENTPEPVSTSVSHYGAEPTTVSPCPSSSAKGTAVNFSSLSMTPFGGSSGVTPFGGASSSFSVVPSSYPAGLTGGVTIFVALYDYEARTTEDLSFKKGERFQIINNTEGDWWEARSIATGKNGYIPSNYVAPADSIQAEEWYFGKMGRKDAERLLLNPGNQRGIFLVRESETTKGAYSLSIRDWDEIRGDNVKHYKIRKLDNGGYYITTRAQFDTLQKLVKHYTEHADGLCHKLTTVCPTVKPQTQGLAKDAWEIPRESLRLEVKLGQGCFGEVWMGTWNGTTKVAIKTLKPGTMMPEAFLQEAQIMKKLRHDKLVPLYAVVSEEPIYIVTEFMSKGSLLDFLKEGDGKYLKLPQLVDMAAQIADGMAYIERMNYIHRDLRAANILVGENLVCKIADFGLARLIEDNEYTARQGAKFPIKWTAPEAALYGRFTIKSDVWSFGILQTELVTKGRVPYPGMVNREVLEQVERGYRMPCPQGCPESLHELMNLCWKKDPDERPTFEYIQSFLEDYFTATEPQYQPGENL

The next assay deals with T2, MLK1 (Homo sapiens, UniProt P80192).
T2 construct: gene MAP3K9
T2 sequence (P80192 whole entry): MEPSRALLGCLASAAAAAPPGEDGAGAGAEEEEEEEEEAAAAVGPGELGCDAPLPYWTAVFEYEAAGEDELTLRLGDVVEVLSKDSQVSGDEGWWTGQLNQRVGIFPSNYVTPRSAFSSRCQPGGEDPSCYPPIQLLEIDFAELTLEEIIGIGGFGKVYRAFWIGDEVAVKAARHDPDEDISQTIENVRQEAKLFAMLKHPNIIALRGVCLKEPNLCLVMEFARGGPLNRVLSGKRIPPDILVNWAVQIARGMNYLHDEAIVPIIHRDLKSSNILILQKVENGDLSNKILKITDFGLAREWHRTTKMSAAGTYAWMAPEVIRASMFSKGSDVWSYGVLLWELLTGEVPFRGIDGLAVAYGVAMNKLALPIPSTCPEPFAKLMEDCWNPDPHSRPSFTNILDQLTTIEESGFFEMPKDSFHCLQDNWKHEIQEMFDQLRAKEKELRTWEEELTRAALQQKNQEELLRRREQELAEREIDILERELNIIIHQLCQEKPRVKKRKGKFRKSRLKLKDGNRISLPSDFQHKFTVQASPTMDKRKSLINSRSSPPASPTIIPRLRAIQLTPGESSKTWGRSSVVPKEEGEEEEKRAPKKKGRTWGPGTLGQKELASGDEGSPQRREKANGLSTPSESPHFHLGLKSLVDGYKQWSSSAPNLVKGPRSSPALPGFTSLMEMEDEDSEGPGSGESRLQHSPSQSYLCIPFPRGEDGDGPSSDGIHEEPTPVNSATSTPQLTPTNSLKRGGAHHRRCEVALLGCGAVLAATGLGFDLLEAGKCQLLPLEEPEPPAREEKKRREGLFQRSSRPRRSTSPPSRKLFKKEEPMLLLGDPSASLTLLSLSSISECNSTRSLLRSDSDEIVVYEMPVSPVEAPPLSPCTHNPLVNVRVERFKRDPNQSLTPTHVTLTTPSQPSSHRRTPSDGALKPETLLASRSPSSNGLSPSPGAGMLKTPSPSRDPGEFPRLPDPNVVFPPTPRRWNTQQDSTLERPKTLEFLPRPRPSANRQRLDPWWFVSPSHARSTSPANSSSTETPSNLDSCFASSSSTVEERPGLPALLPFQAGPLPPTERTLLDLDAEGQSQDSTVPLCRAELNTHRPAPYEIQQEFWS

A further assay has as its target T3, PKC_zeta (Homo sapiens, UniProt Q05513).
T3 construct: gene PRKCZ
T3 sequence (Q05513 1-592): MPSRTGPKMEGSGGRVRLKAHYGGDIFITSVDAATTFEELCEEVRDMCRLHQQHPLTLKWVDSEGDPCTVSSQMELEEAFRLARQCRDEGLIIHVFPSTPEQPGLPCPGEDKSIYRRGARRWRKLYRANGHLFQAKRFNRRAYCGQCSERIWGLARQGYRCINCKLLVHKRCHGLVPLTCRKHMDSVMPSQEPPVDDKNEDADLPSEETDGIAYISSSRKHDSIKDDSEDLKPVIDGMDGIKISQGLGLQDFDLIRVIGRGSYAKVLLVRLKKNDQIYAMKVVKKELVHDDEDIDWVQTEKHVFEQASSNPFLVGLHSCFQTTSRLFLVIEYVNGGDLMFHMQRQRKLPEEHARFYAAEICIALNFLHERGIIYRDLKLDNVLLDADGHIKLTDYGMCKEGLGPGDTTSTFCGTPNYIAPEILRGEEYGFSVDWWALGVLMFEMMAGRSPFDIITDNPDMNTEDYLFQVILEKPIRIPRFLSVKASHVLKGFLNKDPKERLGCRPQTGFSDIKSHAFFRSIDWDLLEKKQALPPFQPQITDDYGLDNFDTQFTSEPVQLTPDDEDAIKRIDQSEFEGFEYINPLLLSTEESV

The next assay addresses T4, ITK (Homo sapiens, UniProt Q08881).
T4 sequence (Q08881 1-620): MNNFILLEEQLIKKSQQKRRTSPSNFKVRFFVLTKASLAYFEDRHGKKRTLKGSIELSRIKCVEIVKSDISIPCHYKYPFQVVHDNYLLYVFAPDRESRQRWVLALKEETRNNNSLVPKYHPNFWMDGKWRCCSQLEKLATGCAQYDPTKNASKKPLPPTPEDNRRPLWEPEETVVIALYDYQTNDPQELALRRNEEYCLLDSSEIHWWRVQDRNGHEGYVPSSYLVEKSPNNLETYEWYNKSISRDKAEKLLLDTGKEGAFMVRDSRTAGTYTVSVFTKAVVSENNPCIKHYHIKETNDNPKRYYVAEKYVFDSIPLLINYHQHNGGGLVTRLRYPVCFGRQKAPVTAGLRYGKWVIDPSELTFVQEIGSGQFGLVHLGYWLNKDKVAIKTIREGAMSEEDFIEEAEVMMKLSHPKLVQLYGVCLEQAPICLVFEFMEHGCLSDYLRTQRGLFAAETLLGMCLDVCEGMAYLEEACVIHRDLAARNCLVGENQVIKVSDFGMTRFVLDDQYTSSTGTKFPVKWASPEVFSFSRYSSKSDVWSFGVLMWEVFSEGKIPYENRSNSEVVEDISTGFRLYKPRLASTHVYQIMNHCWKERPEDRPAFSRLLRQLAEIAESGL

The next assay concerns the target T5, IKK_epsilon (Homo sapiens, UniProt Q14164).
T5 construct: gene IKBKE
T5 sequence (Q14164 1-716): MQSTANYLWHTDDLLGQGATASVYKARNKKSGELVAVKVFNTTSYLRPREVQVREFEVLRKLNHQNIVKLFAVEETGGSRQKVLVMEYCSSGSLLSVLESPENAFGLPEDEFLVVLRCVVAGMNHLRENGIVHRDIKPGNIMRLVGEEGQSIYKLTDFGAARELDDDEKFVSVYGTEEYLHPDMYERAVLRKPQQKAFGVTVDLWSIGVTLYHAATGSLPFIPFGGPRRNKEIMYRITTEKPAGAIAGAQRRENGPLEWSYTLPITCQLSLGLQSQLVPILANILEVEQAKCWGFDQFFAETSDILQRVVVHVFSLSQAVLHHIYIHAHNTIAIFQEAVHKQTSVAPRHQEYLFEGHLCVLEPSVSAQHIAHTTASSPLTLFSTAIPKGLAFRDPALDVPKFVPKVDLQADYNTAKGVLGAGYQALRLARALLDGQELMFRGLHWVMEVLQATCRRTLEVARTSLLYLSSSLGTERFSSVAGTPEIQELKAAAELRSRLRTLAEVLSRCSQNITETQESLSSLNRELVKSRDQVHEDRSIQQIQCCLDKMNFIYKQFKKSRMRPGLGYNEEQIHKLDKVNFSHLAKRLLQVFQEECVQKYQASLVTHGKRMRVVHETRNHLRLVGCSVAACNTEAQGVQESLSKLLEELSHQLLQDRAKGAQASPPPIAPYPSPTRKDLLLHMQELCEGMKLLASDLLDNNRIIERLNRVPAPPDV

A further assay deals with T6, CHK2 (Homo sapiens, UniProt O96017).
T6 construct: gene CHEK2
T6 sequence (O96017 whole entry): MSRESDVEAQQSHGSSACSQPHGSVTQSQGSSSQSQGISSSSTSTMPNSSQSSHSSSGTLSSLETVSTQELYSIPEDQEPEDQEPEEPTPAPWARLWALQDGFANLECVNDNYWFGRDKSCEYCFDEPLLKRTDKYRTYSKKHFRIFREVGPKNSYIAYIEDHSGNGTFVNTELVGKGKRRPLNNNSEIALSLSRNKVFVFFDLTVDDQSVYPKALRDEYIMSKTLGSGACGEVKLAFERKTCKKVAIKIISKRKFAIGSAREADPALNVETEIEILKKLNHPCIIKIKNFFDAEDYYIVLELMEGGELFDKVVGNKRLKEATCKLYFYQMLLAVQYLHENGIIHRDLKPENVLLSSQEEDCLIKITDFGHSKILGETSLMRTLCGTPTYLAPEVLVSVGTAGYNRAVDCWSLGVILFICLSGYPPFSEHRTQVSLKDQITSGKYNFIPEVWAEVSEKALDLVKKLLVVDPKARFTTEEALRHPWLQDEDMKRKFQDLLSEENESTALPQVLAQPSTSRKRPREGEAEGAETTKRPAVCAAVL

ROCK1, sequence (Q13464 whole entry): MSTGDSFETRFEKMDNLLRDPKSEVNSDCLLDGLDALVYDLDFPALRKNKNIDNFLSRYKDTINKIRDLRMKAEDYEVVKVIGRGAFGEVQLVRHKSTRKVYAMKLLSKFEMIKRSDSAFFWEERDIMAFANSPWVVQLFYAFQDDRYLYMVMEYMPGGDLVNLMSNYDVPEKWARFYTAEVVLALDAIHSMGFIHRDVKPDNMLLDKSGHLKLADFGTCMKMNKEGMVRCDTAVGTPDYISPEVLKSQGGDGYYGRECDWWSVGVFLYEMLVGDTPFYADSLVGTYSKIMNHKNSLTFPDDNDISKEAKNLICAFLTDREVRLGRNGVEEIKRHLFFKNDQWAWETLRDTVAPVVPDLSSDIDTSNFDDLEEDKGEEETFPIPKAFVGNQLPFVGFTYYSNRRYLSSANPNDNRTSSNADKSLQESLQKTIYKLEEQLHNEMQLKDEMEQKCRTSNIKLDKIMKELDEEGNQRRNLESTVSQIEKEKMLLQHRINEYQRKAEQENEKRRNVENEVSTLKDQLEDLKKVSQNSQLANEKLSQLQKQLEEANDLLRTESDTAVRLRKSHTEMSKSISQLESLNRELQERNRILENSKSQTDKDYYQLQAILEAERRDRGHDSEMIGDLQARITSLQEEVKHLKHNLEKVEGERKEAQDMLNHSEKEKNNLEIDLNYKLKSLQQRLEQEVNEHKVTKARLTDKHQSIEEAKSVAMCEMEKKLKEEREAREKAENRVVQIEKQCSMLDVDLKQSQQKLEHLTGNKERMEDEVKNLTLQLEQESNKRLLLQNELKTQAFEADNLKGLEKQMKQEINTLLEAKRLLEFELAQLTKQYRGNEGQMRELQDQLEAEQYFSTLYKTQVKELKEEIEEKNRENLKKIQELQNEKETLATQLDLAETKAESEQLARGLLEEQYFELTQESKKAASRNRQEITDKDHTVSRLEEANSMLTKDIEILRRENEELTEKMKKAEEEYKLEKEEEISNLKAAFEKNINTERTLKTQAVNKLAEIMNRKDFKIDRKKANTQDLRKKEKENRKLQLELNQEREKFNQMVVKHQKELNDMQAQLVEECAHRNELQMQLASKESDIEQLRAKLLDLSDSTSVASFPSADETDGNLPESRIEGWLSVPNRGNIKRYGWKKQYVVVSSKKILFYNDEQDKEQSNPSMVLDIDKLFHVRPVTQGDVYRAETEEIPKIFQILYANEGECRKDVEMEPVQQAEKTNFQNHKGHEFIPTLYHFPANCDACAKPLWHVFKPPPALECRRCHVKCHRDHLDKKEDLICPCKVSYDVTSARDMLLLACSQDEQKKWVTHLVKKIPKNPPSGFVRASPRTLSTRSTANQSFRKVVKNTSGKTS

As usually defined, the inhibition is the change of the read-out against control, counted positive when it falls. For the compound `CC#CC(=O)Nc1cccc2c(Oc3ncccc3-c3ccnc(N[C@H]4CCCNC4)n3)c(C)ccc12` [G-7658], the inhibition at 1 µM on ROCK1 was 0.5%; on Yes, 8%; at MLK1, -2.5%; on PKC_zeta, 18.5%; at ITK it was 0%; at IKK_epsilon, 6.5%. The inhibition at 1 µM on CHK2 is 8%.
For the compound `CCOC(=O)Nc1cccc2c(Oc3ncccc3-c3ccnc(N[C@H]4CCCNC4)n3)c(C)ccc12` [G-1749], the inhibition at 1 µM is 3.5% on ROCK1; 7.5% on Yes; -8.5% at MLK1; 12% on PKC_zeta; 5% on ITK; 4% at IKK_epsilon. At CHK2, the inhibition at 1 µM was determined as 12%.
Regarding `O=c1cc(-c2n[nH]c3ncc(-c4c(F)cccc4F)cc23)nc(N2CCC(O)CC2)[nH]1` [G-9807], the inhibition at 1 µM on ROCK1 was 94.6%; at Yes, 52.4%; on MLK1, 98.1%; at PKC_zeta, 34.2%; at ITK, 81.3%; on IKK_epsilon it was 86.5%. For the same compound, at CHK2, the inhibition at 1 µM stood at 95%.
